This note sets out measurements from patent publication US20030050193A1, “Herbicide combinations comprising specific sulfonylureas” (priority 2001, published 2003).

Holding throughout (format): in vivo
In data set [1] the test system is Galium aparine. As to the kind of experiment: Herbicidal action (greenhouse trials), post-emergence, visual scoring. Particulars: Example 1; application rate g of ai/ha: amidosulfuron 15, florasulam 4, A + B 15 + 4; scored approx. 4-6 weeks after application; 100% = all plants dead. On the procedure: (§1) Herbicidal Action (Greenhouse Trials)
(§2) The seeds or rhizome pieces of typical harmful plants were placed into sandy loam soil in round pots, size 13, covered with soil and grown in a greenhouse under good growth conditions. After the harmful plants had emerged, they were treated, as a rule at the 2- to 3-leaf stage, with various dosages of the compositions according to the invention at a water application rate of 100 to 400 l/ha (converted),
(§3) After the treatment (approx. 4-6 weeks after application), the herbidical activity of the active compounds or active compound mixtures was scored visually by comparing the treated plots with the untreated controls. Damage and development of all above-ground parts of the plants was recorded. Scoring was done on a percentage scale (100% action=all plants dead; 50% action=50% of the plants and green plant parts dead; 0% action=no discernible action),
(§4) The results are listed in the tables below, where the activity measured for the independent use of the active compounds (A) and (B) is stated in brackets, […]

Data set [2] has as its system Veronica hederifolia. The description is as above. The conditions noted are these: Example 2; application rate g of al/ha: amidosulfuron 8, cinidon-ethyl 13, A + B 8 + 13; scored approx. 4-6 weeks after application; 100% = all plants dead. The procedure:
as §1, §2, §3, §4

Data set [3] has as its system Wheat. Nature of the data set: Crop damage in greenhouse trials, visual scoring. The conditions noted are these: scored approx. 4-6 weeks after application. On the procedure:
as §1, §2, §3, §4

Where [4] appears, read: Example 1, application rate g of ai/ha: amidosulfuron 15, florasulam 4, A + B 15 + 4.
Setting [5] is: Example 2, application rate g of al/ha: amidosulfuron 8, cinidon-ethyl 13, A + B 8 + 13.

Regarding `COc1cc(OC)nc(NC(=O)NS(=O)(=O)N(C)S(C)(=O)=O)n1` [Amidosulfuron, 1-(4,6-dimethoxypyrimidin-2-yl)-3-mesyl-(methyl)-sulfamoylurea], the “Galium aparine % activity” value in data set [1] was found to be 35%. Besides, the “Veronica hederifolia % activity” value in data set [2] is recorded as 0%. Also, the Wheat % damage in data set [3] (setting [4]) is reported as 0%; in data set [3] (setting [5]), 0.
Consider `COc1ncc(F)c2nc(S(=O)(=O)Nc3c(F)cccc3F)nn12` [Florasulam, 2′,6′,8′-trifluoro-5-methoxy[1,2,4]triazolo[1,5-c]pyrimidine-2-sulfanilide], for which the “Galium aparine % activity” value in data set [1] came to 45%. Moreover, the Wheat % damage in data set [3] (setting [4]) was 1%.
With `CCOC(=O)/C(Cl)=C/c1cc(N2C(=O)C3=C(CCCC3)C2=O)ccc1Cl` [Cinidon-ethyl, ethyl (Z)-2-chloro-3-[2-chloro-5-(1,2-cyclohex-1-enedicarboximido)phenyl]acrylate], in data set [2], the “Veronica hederifolia % activity” value is recorded as 15%. Further, the Wheat % damage in data set [3] (setting [5]) is 0.
